These results are taken from patent US11510899B2, “RTX toxin production inhibitor and composition for treating symptom of vibrio infection by using same” (priority 2018, dated 2022).

For one experiment, the target named is T1, HlyU (Vibrio vulnificus, UniProt A0A3Q0L222).
T1 sequence (A0A3Q0L222 1-98): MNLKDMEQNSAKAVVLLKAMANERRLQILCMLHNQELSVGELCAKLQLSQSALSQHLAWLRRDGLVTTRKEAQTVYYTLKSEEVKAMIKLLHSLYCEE
The experiment in a line: Vibrio reporter strain, pKK1305 (PrtxA-lux, activated by HlyU) in wild-type V. vulnificus. It counts as cell-based. The note with it: Compound Group I; HlyU activity (RLU, DMSO = 100%), 30° C. As for the experimental part: Meanwhile, verification experiments using the Vibrio reporter strain were also conducted so as to exclude false positive results. It was identified that the effect of the compound was not limited only to E. coli using Vibrio vulnificus, each having the reporter plasmid (pZW1608) inhibited by HlyU, which was used for the E. coli reporter strain, and the plasmid (pKK1305) in which the promoter of the rtxA gene activated by HlyU is cloned in front of the bioluminescence operon.
The constructed wild-type Vibrio reporter strain was treated with sample compounds and cultured at 30° C., and cell growth and luminescence were measured in the same manner as the E. coli strain screening (FIG. 3 and FIG. 4).
In order to identify whether or not a specific structure of CM2660 has a significant effect on HlyU inhibition, the effect of HlyU inhibition by the compound CM2660 and derivatives thereof, “Compound Group I” (FIG. 5) was verified. For the purpose, the pKK1305 plasmid prepared in Example 1 was conjugated to the wild-type Vibrio vulnificus, and the Vibrio reporter strain (pKK1305 in wild-type V. vulnificus) thus produced was treated with various concentrations of the derivative compounds.
While culturing at 30° C., the growth of the reporter strain and the degree of bioluminescence thereof were measured in the same manner as in Example 1, and the RLU was calculated. The RLU of the DMSO-treated control group was expressed as 100% HlyU activity. HlyU activity was plotted according to the concentration of the derivative compound, and EC50 (half maximal effective concentration) was calculated using GraphPad Prism 7.0 (GraphPad Software, San Diego, Calif.) (FIG. 6, Table 2).
For `O=C(CCc1ccccc1)Nc1scc2c1c(=O)oc1ccccc12` [LJ4458], the response was half-maximal at 875 µM (EC50).

Take `O=C(Nc1scc2c1c(=O)oc1ccccc12)c1ccccc1` [LJ4451]: the EC50 (commonly the concentration needed to bring the measured effect to its halfway point) came to 993 µM.

The experiment is the same for the next values; noted with them: Compound Group II; HlyU activity (RLU, DMSO = 100%), 30° C.; read-out: EC50.
On to `CC(C)(C)OC(=O)CNC(=O)C#Cc1ccc(N)cc1` [LJ4531], for which the EC50 was 118 µM.

In the case of `O=C(O)CNC(=O)C#Cc1ccccc1` [LJ4533], the EC50 was determined as 1140 µM.

Consider `O=C(O)C#Cc1ccc([N+](=O)[O-])cc1` [LJ4526], for which the EC50 turned out to be 140 µM.

Take `CC(C)(C)OC(=O)CNC(=O)C#Cc1cccnc1` [LJ4532]: the EC50 was 52.4 µM.
